Source: PubChem BioAssay (NCI)
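Results reflect a 48-hour exposure of cells in 96-well plates to compound at five concentrations. Abbreviation: GI50, concentration required for 50% inhibition of growth. TGI marks complete inhibition of growth.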

What was measured:
Experiment in all cases: NCI anticancer screen, dose series, 48 h
KM12 colon = system: KM12 colon
IGROV1 ovarian = system: IGROV1 ovarian
UACC-257 melanoma = system: UACC-257 melanoma
RXF 393 renal = system: RXF 393 renal
HT29 colon = system: HT29 colon
SW-620 colon = system: SW-620 colon
MALME-3M melanoma = system: MALME-3M melanoma
BT-549 breast = system: BT-549 breast
SF-539 CNS = system: SF-539 CNS
SR leukemia = system: SR leukemia
UO-31 renal = system: UO-31 renal
CCRF-CEM leukemia = system: CCRF-CEM leukemia
NCI-H226 lung = system: NCI-H226 lung
SK-MEL-5 melanoma = system: SK-MEL-5 melanoma
U251 CNS = system: U251 CNS
PC-3 prostate = system: PC-3 prostate
SNB-19 CNS = system: SNB-19 CNS
SN12C renal = system: SN12C renal
DU-145 prostate = system: DU-145 prostate
NCI-H522 lung = system: NCI-H522 lung
HOP-92 NSCLC = system: HOP-92 NSCLC
HOP-62 NSCLC = system: HOP-62 NSCLC
SK-MEL-2 melanoma = system: SK-MEL-2 melanoma
SF-268 CNS = system: SF-268 CNS
TK-10 renal = system: TK-10 renal
OVCAR-4 ovarian = system: OVCAR-4 ovarian
K-562 leukemia = system: K-562 leukemia
786-0 renal = system: 786-0 renal
HS 578T breast = system: HS 578T breast
ACHN renal = system: ACHN renal
A549 NSCLC = system: A549 NSCLC
RPMI-8226 leukemia = system: RPMI-8226 leukemia
MDA-MB-435 = system: MDA-MB-435
EKVX NSCLC = system: EKVX NSCLC
T-47D breast = system: T-47D breast
SNB-75 CNS = system: SNB-75 CNS
NCI-H460 lung = system: NCI-H460 lung
HL-60(TB) leukemia = system: HL-60(TB) leukemia
SK-OV-3 ovarian = system: SK-OV-3 ovarian
A498 renal = system: A498 renal
NCI/ADR-RES ovarian = system: NCI/ADR-RES ovarian
HCC-2998 colon = system: HCC-2998 colon
M14 melanoma = system: M14 melanoma
MDA-MB-231 breast = system: MDA-MB-231 breast
NCI-H23 lung = system: NCI-H23 lung
SF-295 CNS = system: SF-295 CNS
SK-MEL-28 melanoma = system: SK-MEL-28 melanoma
LOX IMVI melanoma = system: LOX IMVI melanoma
CAKI-1 renal = system: CAKI-1 renal
MCF7 breast = system: MCF7 breast
OVCAR-5 ovarian = system: OVCAR-5 ovarian
HCT-15 colon = system: HCT-15 colon
HCT-116 colon = system: HCT-116 colon
COLO 205 colon = system: COLO 205 colon
UACC-62 melanoma = system: UACC-62 melanoma

O=C(CNc1nc(-c2cccc([N+](=O)[O-])c2)cs1)Nc1cccc([N+](=O)[O-])c1
GI50 (KM12 colon): 1360 nM
TGI (KM12 colon): 3.09 µM
GI50 (IGROV1 ovarian): 333 nM
TGI (IGROV1 ovarian): 1330 nM
GI50 (UACC-257 melanoma): 1950 nM
TGI (UACC-257 melanoma): 5.08 µM
GI50 (RXF 393 renal): 522 nM
TGI (RXF 393 renal): 2070 nM
GI50 (HT29 colon): 744 nM
TGI (HT29 colon): 2290 nM
GI50 (SW-620 colon): 372 nM
TGI (SW-620 colon): 2010 nM
GI50 (MALME-3M melanoma): 1580 nM
TGI (MALME-3M melanoma): 3.18 µM
GI50 (BT-549 breast): 627 nM
TGI (BT-549 breast): 2210 nM
GI50 (SF-539 CNS): 1530 nM
TGI (SF-539 CNS): 3.49 µM
GI50 (SR leukemia): 419 nM
TGI (SR leukemia): > 100 µM
GI50 (UO-31 renal): 1290 nM
TGI (UO-31 renal): 2670 nM
GI50 (CCRF-CEM leukemia): 446 nM
TGI (CCRF-CEM leukemia): > 100 µM
GI50 (NCI-H226 lung): 1040 nM
TGI (NCI-H226 lung): 3.32 µM
GI50 (SK-MEL-5 melanoma): 1790 nM
TGI (SK-MEL-5 melanoma): 3.24 µM
GI50 (U251 CNS): 1710 nM
TGI (U251 CNS): 5 µM
GI50 (PC-3 prostate): 593 nM
TGI (PC-3 prostate): 2660 nM
GI50 (SNB-19 CNS): 2220 nM
TGI (SNB-19 CNS): 6.44 µM
GI50 (SN12C renal): 1740 nM
TGI (SN12C renal): 5.03 µM
GI50 (DU-145 prostate): 2020 nM
TGI (DU-145 prostate): 4.79 µM
GI50 (NCI-H522 lung): 1330 nM
TGI (NCI-H522 lung): 2900 nM
GI50 (HOP-92 NSCLC): 1700 nM
TGI (HOP-92 NSCLC): 4 µM
GI50 (HOP-62 NSCLC): 1980 nM
TGI (HOP-62 NSCLC): 4.13 µM
GI50 (SK-MEL-2 melanoma): 1790 nM
TGI (SK-MEL-2 melanoma): 3.31 µM
GI50 (SF-268 CNS): 1690 nM
TGI (SF-268 CNS): 3.35 µM
GI50 (TK-10 renal): 1530 nM
TGI (TK-10 renal): 5.82 µM
GI50 (OVCAR-4 ovarian): 2090 nM
TGI (OVCAR-4 ovarian): 5.07 µM
GI50 (K-562 leukemia): 1030 nM
TGI (K-562 leukemia): > 100 µM
GI50 (786-0 renal): 1940 nM
TGI (786-0 renal): 4.88 µM
GI50 (HS 578T breast): 1600 nM
TGI (HS 578T breast): 5.28 µM
GI50 (ACHN renal): 1300 nM
TGI (ACHN renal): 2630 nM
GI50 (A549 NSCLC): 2630 nM
TGI (A549 NSCLC): 9.09 µM
GI50 (RPMI-8226 leukemia): 1470 nM
TGI (RPMI-8226 leukemia): 4.32 µM
GI50 (MDA-MB-435): 1650 nM
TGI (MDA-MB-435): 3.07 µM
GI50 (EKVX NSCLC): 2060 nM
TGI (EKVX NSCLC): 4.74 µM
GI50 (T-47D breast): 1910 nM
TGI (T-47D breast): 4.87 µM
GI50 (SNB-75 CNS): 1070 nM
TGI (SNB-75 CNS): 2350 nM
GI50 (NCI-H460 lung): 1040 nM
TGI (NCI-H460 lung): 2760 nM
GI50 (HL-60(TB) leukemia): 2080 nM
TGI (HL-60(TB) leukemia): 7.73 µM
GI50 (SK-OV-3 ovarian): 871 nM
TGI (SK-OV-3 ovarian): 2410 nM
GI50 (A498 renal): 1300 nM
TGI (A498 renal): 2580 nM
GI50 (NCI/ADR-RES ovarian): 1470 nM
TGI (NCI/ADR-RES ovarian): 4.59 µM
GI50 (HCC-2998 colon): 1780 nM
TGI (HCC-2998 colon): 3.48 µM
GI50 (M14 melanoma): 1480 nM
TGI (M14 melanoma): 3.06 µM
GI50 (MDA-MB-231 breast): 2110 nM
TGI (MDA-MB-231 breast): 4.56 µM
GI50 (NCI-H23 lung): 404 nM
TGI (NCI-H23 lung): 1760 nM
GI50 (SF-295 CNS): 2120 nM
TGI (SF-295 CNS): 5.47 µM
GI50 (SK-MEL-28 melanoma): 1490 nM
TGI (SK-MEL-28 melanoma): 3.08 µM
GI50 (LOX IMVI melanoma): 577 nM
TGI (LOX IMVI melanoma): 2040 nM
GI50 (CAKI-1 renal): 715 nM
TGI (CAKI-1 renal): 2600 nM
GI50 (MCF7 breast): 942 nM
TGI (MCF7 breast): 4.61 µM
GI50 (OVCAR-5 ovarian): 542 nM
TGI (OVCAR-5 ovarian): 2370 nM
GI50 (HCT-15 colon): 582 nM
TGI (HCT-15 colon): 2810 nM
GI50 (HCT-116 colon): 1240 nM
TGI (HCT-116 colon): 3.18 µM
GI50 (COLO 205 colon): 1280 nM
TGI (COLO 205 colon): 2850 nM
GI50 (UACC-62 melanoma): 662 nM
TGI (UACC-62 melanoma): 2030 nM
